The text below walks through data of patent publication US10584098B2, “Quinolone-3-diarylethers” (OREGON HEALTH & SCIENCE UNIVERSITY, priority 2015, dated 2020).

Data set [1] in a line: Stability of prodrug to metabolism.
Data set [2] in a line: In vivo efficacy of earlier prodrug versus parent compound. The conditions noted are these: compared to the parent compound ELQ-300.
Another data set deals with P. falciparum strain D6. Briefly: SYBR green antiplasmodial assay, strain D6. The format is cell-based, Plasmodium falciparum.
The test system of another data set is P. falciparum strain Dd2. Kind of data set: SYBR green antiplasmodial assay, strain Dd2. Format: cell-based, Plasmodium falciparum. Particulars: read-out: IC50, nM, P. falciparum strain Dd2.
Data set [3] concerns P. falciparum strain Tm90-C2B. Briefly: SYBR green antiplasmodial assay, strain Tm90-C2B. The format is cell-based, Plasmodium falciparum. The conditions noted are these: read-out: IC50, nM, P. falciparum strain Tm90-C2B.
Protocol: (§1) Automated pipetting and dilution was carried out with the aid of a programmable Precision 2000 robotic station (BioTek, Winooski, Vt.). An initial parasitemia of 0.2% was obtained by addition of normal uninfected red cells to a stock culture of asynchronous parasite infected red cells (PRBC).
Data set [4] concerns P. yoelii (Kenya strain, MR4 MRA-428). Briefly: Single dose cure (SDC) of patent blood stage murine malaria infection. Format: in vivo, Plasmodium yoelii. The conditions noted are these: mice; for minimal effective dose: Plasmodium yoelii, po, 720 h, single dose, read-out: Lowest fully effective single dose cure P. yoelii; for lowest fully protective single-dose cure (SDC): single oral dose in PEG-400, parasite free 30 days. Here is the method: As described above, mice (female, CF1, Charles River Labs) were infected intravenously with 10^5 P. yoelii (Kenya strain, MR4 MRA-428/Murine LDH Elevating Virus-Free) parasitized erythrocytes from a donor animal. Drug administration commenced the day after the animals were inoculated (Day 1). The test compounds were dissolved in PEG-400 and administered by oral gavage once. On the 5th day blood films were prepared and the extent of parasitemia was determined by microscopic examination of Giemsa stained smears. Animals remaining parasite free 30 days after the last drug dose were considered cured of their infection.

In another data set the test system is P. yoelii. Kind of data set: 4-day suppression test in P. yoelii infected mice. Format: in vivo, Plasmodium yoelii. The conditions noted are these: dosing on 4 sequential days, smears on Day 5.
The nature of data set [5]: Chemical stability in solvent / acidic conditions. The format is physicochemical. As to the method: Ethyl chloroformate is then added dropwise. The reaction goes to completion in minutes upon the addition of the chloroformate forming one regioisomer in very high yield. […] Results are summarized in Scheme 1
A further data set relates to P. falciparum. Kind of data set: In vitro intrinsic antiplasmodial activity against all test strains. Format: cell-based, Plasmodium falciparum.
The nature of data set [6]: Oral bioavailability in mice. Format: in vivo. The conditions noted are these: relative to ELQ-300.
Data set [7] in a line: Oral bioavailability in rats. The conditions noted are these: relative to ELQ-300. The format is in vivo.
For data set [8] the following is noted: human, microsomes.
Protocol: The loss of substrate was monitored by LC/MS/MS. Midazolam was monitored as a well characterized positive control. Midazolam represents a drug with comparatively low metabolic stability. Incubations were conducted in the absence of the NADPH regenerating system to monitor for potential P450-independent metabolism.
For data set [9], the target named is Plasmodium falciparum cytochrome bc1 complex (Plasmodium falciparum, UniProt Q02768). Kind of data set: Inhibition of cytochrome bc1 complex. The format is biochemical.
Setting [10] is: 72 h, chloroquine sensitive strain; Table 1 of Example 4; read-out: IC50, nM, P. falciparum strain D6.
The mark [11] stands for this setting: 72 h, multidrug resistant strain.
[12] abbreviates: 72 h, resistant to chloroquine and atovaquone.
Setting [13] is: Plasmodium falciparum, D6, 72 h; read-out: IC50, nM, P. falciparum strain D6.
Setting [14] is: Plasmodium falciparum, DD2, 72 h, multidrug resistant strain.
The mark [15] stands for this setting: Plasmodium falciparum, TM90, 72 h, resistant to chloroquine and atovaquone.
[16] abbreviates: Plasmodium falciparum, D6; read-out: P. falciparum strain D6, IC50.
[17] abbreviates: single oral doses in the range of 1 to 20 mg/kg.

Where two headings read alike, the source gives them in different places.

Protocol for P. falciparum strain D6: as §1
Protocol for P. falciparum strain Dd2: as §1

As to `COc1cc2nc(C)c(-c3ccc(Oc4ccc(OC(F)(F)F)cc4)cc3)c(OC(=O)N(C)C)c2cc1Cl` [ELQ-301], in data set [1], the stability to metabolism result is “stable to metabolism”. The “in vivo efficacy compared to ELQ-300” value in data set [2] is “inferior in vivo efficacy”.
`CCOC(=O)OC(C)Oc1c(-c2ccc(Oc3ccc(OC(F)(F)F)cc3)cc2)c(C)nc2cc(OC)c(Cl)cc12` (centres unmarked) [ELQ-387]: the IC50 with P. falciparum strain D6 (setting [10]) was found to be 326 nM; in the data set on P. falciparum strain Dd2 (setting [11]), 141 nM; in data set [3] (setting [12]) it was 231 nM.
In the case of `O=C1C(O)=C([C@H]2CC[C@H](c3ccc(Cl)cc3)CC2)C(=O)c2ccccc21` [Atovaquone, reference compound], the IC50 in the data set on P. falciparum strain D6 (setting [13]) was 0.2 nM; with P. falciparum strain Dd2 (setting [14]), 0.2 nM; in data set [3] (setting [15]), more than 250 nM.
For the compound `CCN(CC)CCCC(C)Nc1ccnc2cc(Cl)ccc12` (centres unmarked) [Chloroquine, reference compound], the IC50 with P. falciparum strain D6 (Plasmodium falciparum, D6, 72 h, read-out: IC50, nM, P. falciparum strain D6) worked out at 10 nM; in the data set on P. falciparum strain Dd2 (Plasmodium falciparum, DD2, 72 h), 137 nM; in [3] (Plasmodium falciparum, TM90, 72 h), 98 nM.
Take `COC(=O)Oc1c(-c2ccc(Oc3ccc(OC(F)(F)F)cc3)cc2)c(C)nc2cc(OC)c(Cl)cc12` [ELQ-336, 6-chloro-7-methoxy-2-methyl-3-(4-(4-(trifluoromethoxy)phenoxy)phenyl)quinolin-4-yl methyl carbonate]: the IC50 in the data set with P. falciparum strain D6 (setting [16]) worked out at 2.5 nM. The minimal effective dose in data set [4] came to 4 mg/kg.
As to `COc1cc2nc(C)c(-c3ccc(Oc4ccc(OC(F)(F)F)cc4)cc3)c(OC(=O)C(C)(C)C)c2cc1Cl` [ELQ-357, 6-chloro-7-methoxy-2-methyl-3-(4-(4-(trifluoromethoxy)phenoxy)phenyl)quinolin-4-yl pivalate], in the data set on P. falciparum strain D6 (setting [16]), the IC50 was determined as 3.5 nM. In addition, the minimal effective dose in [4] is 4 mg/kg.
For the compound `COc1cc2nc(C)c(-c3ccc(Oc4ccc(OC(F)(F)F)cc4)cc3)c(OC(=O)OCC3COC(=O)O3)c2cc1Cl` (centres unmarked) [ELQ-373, 6-chloro-7-methoxy-2 methyl-3-(4-(4-(trifluoromethoxy)phenoxy)phenyl)quinolin-4-yl ((2-oxo-1,3-dioxolan-4-yl)methyl) carbonate], the IC50 in the data set with P. falciparum strain D6 (setting [16]) came to 3.1 nM. For the same compound, the minimal effective dose in data set [4] was found to be 4 mg/kg.
Regarding `COc1cc2nc(C)c(-c3ccc(Oc4ccc(OC(F)(F)F)cc4)cc3)c(OC(=O)c3ccccc3)c2cc1Cl` [ELQ-379, 6-chloro-7-methoxy-2-methyl-3-(4-(4-(trifluoromethoxy)phenoxy)phenyl)quinolin-4-yl benzoate], the IC50 with P. falciparum strain D6 (setting [16]) was 2.5 nM.
For the compound `CCOC(=O)Oc1c(-c2ccc(Oc3ccc(OC(F)(F)F)cc3)cc2)c(C)nc2cc(OC)c(Cl)cc12` [ELQ-337, 6-chloro-7-methoxy-2-methyl-3-(4-(4-(trifluoromethoxy)phenoxy)phenyl)quinolin-4-yl ethyl carbonate], in the data set on P. falciparum strain D6 (setting [16]), the half-maximal inhibitory concentration (IC50) is 2.5 nM. Also, in data set [4], the minimal effective dose was determined as 3 mg/kg. In addition, the “animals in which single dose failed” value in [4] (1 mg/kg, on Day 12) is given as 4/4. Also, the “single dose cures (SDC), animals cured” value in data set [4] (doses as low as 3 mg/kg) is 4/4. In the data set with P. yoelii, the ED50 was 0.02 mg/kg/day, the ED90 amounted to 0.05 mg/kg/day and the ED99 was found to be 0.075 mg/kg/day. The chemical stability result in data set [5] (50/50 mixtures of methanol and water at pH 3 and 8 overnight) is listed as “chemically stable”. Also, in the data set with P. falciparum, the “IC50 values against all test strains” value is listed as “low to sub-nanomolar range”. In data set [6], the oral bioavailability entry is listed as “enhanced over ELQ-300”. Also, in data set [7], the oral bioavailability entry is recorded as “enhanced over ELQ-300”.
As for `CCOC(=O)OCOc1c(-c2ccc(Oc3ccc(OC(F)(F)F)cc3)cc2)c(C)nc2cc(OC)c(Cl)cc12` [ELQ-331], the IC50 in the data set on P. falciparum strain D6 (setting [10]) was 6 nM; in data set [3] (setting [12]) it was 4 nM. In data set [4], the “lowest fully protective single-dose cure (SDC)” value turned out to be 2.5 mg/kg. Also, the t1/2 in data set [8] was determined as 37.7 min.
`COc1cc2nc(C)c(-c3ccc(Oc4ccc(OC(F)(F)F)cc4)cc3)c(OC(=O)OC3CCS(=O)(=O)C3)c2cc1Cl` (centres unmarked) [ELQ-355, 6-chloro-7-methoxy-2-methyl-3-(4-(4-(trifluoromethoxy)phenoxy)phenyl)quinolin-4-yl (1,1-dioxidotetrahydrothiophen-3-yl) carbonate]: the IC50 with P. falciparum strain D6 (setting [16]) came to 3.9 nM. Also, the minimal effective dose in [4] is 4 mg/kg.
The corresponding values for `COc1cc2nc(C)c(-c3ccc(Oc4ccc(OC(F)(F)F)cc4)cc3)c(OC(=O)C(C)C)c2cc1Cl` [ELQ-375, 6-chloro-7-methoxy-2-methyl-3-(4-(4-(trifluoromethoxy)phenoxy)phenyl)quinolin-4-yl isobutyrate] are 8.2 nM and 4 mg/kg.
The corresponding values for `COc1cc2nc(C)c(-c3ccc(Oc4ccc(OC(F)(F)F)cc4)cc3)c(OC(=O)OCC3COC(C)(C)O3)c2cc1Cl` (centres unmarked) [ELQ-374, 6-chloro-7-methoxy-2-methyl-3-(4-(4-(trifluoromethoxy)phenoxy)phenyl)quinolin-4-yl ((2,2-dimethyl-1,3-dioxolan-4-yl)methyl) carbonate] are 2.7 nM and 4 mg/kg.
For `C=CCOC(=O)Oc1c(-c2ccc(Oc3ccc(OC(F)(F)F)cc3)cc2)c(C)nc2cc(OC)c(Cl)cc12` [ELQ-359, allyl (6-chloro-7-methoxy-2-methyl-3-(4-(4-(trifluoromethoxy)phenoxy)phenyl)quinolin-4-yl) carbonate], in the data set on P. falciparum strain D6 (setting [16]), the 50% inhibitory concentration (IC50) came to 2.5 nM. In addition, the minimal effective dose in data set [4] amounted to 4 mg/kg.
The corresponding values for `COCCOC(=O)Oc1c(-c2ccc(Oc3ccc(OC(F)(F)F)cc3)cc2)c(C)nc2cc(OC)c(Cl)cc12` [ELQ-354, 6-chloro-7-methoxy-2-methyl-3-(4-(4-(trifluoromethoxy)phenoxy)phenyl)quinolin-4-yl(2-methoxyethyl) carbonate] are 3 nM and 3 mg/kg.
Regarding `COc1cc2nc(C)c(-c3ccc(Oc4ccc(OC(F)(F)F)cc4)cc3)c(OCOC(=O)OC(C)C)c2cc1Cl` [ELQ-330], the results for the IC50 (with P. falciparum strain D6 (setting [10]); in the data set on P. falciparum strain Dd2 (setting [11]); in data set [3] (setting [12])) were 62 nM, 38 nM and 47 nM, respectively. In addition, the “lowest fully protective single-dose cure (SDC)” value in data set [4] turned out to be 5 mg/kg.
In the case of `COc1cc2[nH]c(C)c(-c3ccc(Oc4ccc(OC(F)(F)F)cc4)cc3)c(=O)c2cc1Cl` [ELQ-300, reference compound], the IC50 in the data set on P. falciparum strain D6 (setting [13]) worked out at 6 nM; with P. falciparum strain D6 (setting [16]), 3.1 nM; with P. falciparum strain Dd2 (setting [14]), 6 nM; in [3] (setting [15]), 2 nM. Further, in [4], the minimal effective dose is more than 20 mg/kg. In data set [4] (setting [17]), the parasitemia suppression result is “suppressed parasitemia completely”. The recrudescence result in data set [4] (setting [17]) is recorded as “recrudescence occurred within two weeks of dosing”. In data set [9], the “inhibition of cytochrome bc1 complex” value is on record as “sub-nanomolar”.
With `COc1cc2nc(C)c(-c3ccc(Oc4ccc(OC(F)(F)F)cc4)cc3)c(OC(=O)OC(C)(C)C)c2cc1Cl` [ELQ-358, tert-butyl (6-chloro-7-methoxy-2-methyl-3-(4-(4-(trifluoromethoxy)phenoxy)phenyl)quinolin-4-yl) carbonate], the IC50 with P. falciparum strain D6 (setting [16]) was found to be 6 nM. Also, the minimal effective dose in data set [4] is more than 4 mg/kg.
As to `COc1cc2nc(C)c(-c3ccc(Oc4ccc(OC(F)(F)F)cc4)cc3)c(OC(C)=O)c2cc1Cl` [ELQ-370], in data set [5], the “chemical stability to acid” value is given as “chemically unstable to mildly acidic conditions” and the stability in methanol result is “decomposes rapidly in methanol”.

The term IC50 denotes the point on the concentration scale where inhibition reaches its midpoint. In general, ED50 refers to the dose that gives a 50% effect, or the effect in half of the subjects. A high value points to a need for a large dose.
